Laboratory results as given in patent publication US20260053811A1, “METHODS OF TREATING HYPERTENSION IN OBESE SUBJECTS” (Mineralys Therapeutics, Inc., priority 2022, published 2026).
Where “and” joins values, the source holds several entries; their conditions need not be identical. Equal entries are not always repeated.

How the values were obtained:
Assay type in all cases: in vivo, human
hypertensive subjects = test: Serum sodium; settings: active treatment cohorts; Parts 1 and 2
serum aldosterone = test: Serum aldosterone (pharmacodynamic response); settings: for Reduction in median serum aldosterone compared to baseline: week 4, low renin subjects (Part-1); for Aldosterone levels, change relative to baseline, range across active arms / Aldosterone, Mean (SD) Observed / Aldosterone, Mean (SD) Percent Change from Baseline: Part 1; for Aldosterone, Mean Observed / Aldosterone, Mean Percent Change from Baseline: Part 2
Text: (§1) PK/PD Analysis Set includes all subjects in the SAF who have sufficient data available for the analysis of pharmacokinetic and pharmacodynamic measurements. In the analyses based on PKPD, subjects will be analyzed according to the actual treatment received.

serum cortisol = test: Serum cortisol (pharmacodynamic response); settings: for Serum cortisol percent change from baseline: Part 2; for Serum cortisol percent change from baseline, range across active arms / Cortisol, Mean (SD) Observed / Cortisol, Mean (SD) Percent Change from Baseline: Part 1
Text: as §1

For `CC(=O)N[C@H]1CC[C@H](NC(=O)CN2CCN(c3nncc(-c4ccc(C)cc4)n3)CC2)CC1` [Compound A HBr], the Serum sodium levels (hypertensive subjects) was “decreased”, the “Reduction in median serum aldosterone compared to baseline” value (“Reduction in median serum aldosterone” below) (serum aldosterone; 25 mg BID) was 9.6% and the “Reduction in median serum aldosterone” value (serum aldosterone; 50 mg QD) was 65.2%. The “Reduction in median serum aldosterone” value (serum aldosterone; 100 mg QD) was 70.0%, the “Aldosterone levels, change relative to baseline, range across active arms” value (serum aldosterone; Week 4) was −40.1% to 7.4% and the “Aldosterone levels, change relative to baseline, range across active arms” value (serum aldosterone; Week 12) was −26.6% to 15.9%. For the same compound, the “Aldosterone, Mean (SD) Observed” value (serum aldosterone; Wk 4, 12.5 mg BID) was 4.447 (3.681) ng/dL, the “Aldosterone, Mean (SD) Percent Change from Baseline” value (serum aldosterone; Wk 4, 12.5 mg BID) was −37.86 (35.66) % and the “Aldosterone, Mean (SD) Observed” value (serum aldosterone; Wk 4, 12.5 mg QD) was 6.132 (4.606) ng/dL. For the same compound, the “Aldosterone, Mean (SD) Percent Change from Baseline” value (serum aldosterone; Wk 4, 12.5 mg QD) was 7.39 (91.87) %, the “Aldosterone, Mean (SD) Observed” value (serum aldosterone; Wk 4, 25 mg BID) was 3.192 (3.274) ng/dL and the “Aldosterone, Mean (SD) Percent Change from Baseline” value (serum aldosterone; Wk 4, 25 mg BID) was 1.66 (233.60) %. For the same compound, the “Aldosterone, Mean (SD) Observed” value (serum aldosterone; Wk 4, 50 mg QD) was 3.923 (5.283) ng/dL, the “Aldosterone, Mean (SD) Percent Change from Baseline” value (serum aldosterone; Wk 4, 50 mg QD) was −40.06 (70.25) % and the “Aldosterone, Mean (SD) Observed” value (serum aldosterone; Wk 4, 100 mg QD) was 4.000 (4.252) ng/dL. For the same compound, the “Aldosterone, Mean (SD) Percent Change from Baseline” value (serum aldosterone; Wk 4, 100 mg QD) was −32.18 (75.13) %, the “Aldosterone, Mean (SD) Observed” value (serum aldosterone; Wk 12, 12.5 mg BID) was 6.765 (4.085) ng/dL and the “Aldosterone, Mean (SD) Percent Change from Baseline” value (serum aldosterone; Wk 12, 12.5 mg BID) was 1.97 (66.85) %. For the same compound, the “Aldosterone, Mean (SD) Observed” value (serum aldosterone; Wk 12, 12.5 mg QD) was 6.833 (4.743) ng/dL, the “Aldosterone, Mean (SD) Percent Change from Baseline” value (serum aldosterone; Wk 12, 12.5 mg QD) was 15.91 (67.68) % and the “Aldosterone, Mean (SD) Observed” value (serum aldosterone; Wk 12, 25 mg BID) was 4.983 (3.432) ng/dL. For the same compound, the “Aldosterone, Mean (SD) Percent Change from Baseline” value (serum aldosterone; Wk 12, 25 mg BID) was −10.10 (66.83) %, the “Aldosterone, Mean (SD) Observed” value (serum aldosterone; Wk 12, 50 mg QD) was 5.385 (4.087) ng/dL and the “Aldosterone, Mean (SD) Percent Change from Baseline” value (serum aldosterone; Wk 12, 50 mg QD) was −3.75 (56.02) %. For the same compound, the “Aldosterone, Mean (SD) Observed” value (serum aldosterone; Wk 12, 100 mg QD) was 4.563 (2.868) ng/dL, the “Aldosterone, Mean (SD) Percent Change from Baseline” value (serum aldosterone; Wk 12, 100 mg QD) was −26.56 (37.55) % and the “Aldosterone, Mean Observed” value (serum aldosterone; Wk 4, 100 mg QD) was 5.060 ng/dL. The “Aldosterone, Mean Percent Change from Baseline” value (serum aldosterone; Wk 4, 100 mg QD) was −6.05%, the “Aldosterone, Mean Observed” value (serum aldosterone; Wk 10, 100 mg QD) was 4.929 ng/dL and the “Aldosterone, Mean Percent Change from Baseline” value (serum aldosterone; Wk 10, 100 mg QD) was −4.06%. For the same compound, the “Serum aldosterone levels, pharmacodynamic response” value (serum aldosterone; across doses) was “dose-dependent reduction in serum aldosterone levels”, the “Serum cortisol percent change from baseline” value (serum cortisol; 100 mg QD, Week 4) was 20.1% and the “Serum cortisol percent change from baseline” value (serum cortisol; 100 mg QD, Week 8) was 153.4%. The “Serum cortisol percent change from baseline” value (serum cortisol; 100 mg QD, Week 12) was 1.5%, the “Serum cortisol percent change from baseline, range across active arms” value (serum cortisol; Week 4) was 3.8% to 19.2% and the “Serum cortisol percent change from baseline, range across active arms” value (serum cortisol; Week 8) was 20.6% to 51.4%. The “Serum cortisol percent change from baseline, range across active arms” value (serum cortisol; Week 12, listed as lorundrostat) was −1.2% to 22.7% and −1.2 to 22.6%, the “Cortisol, Mean (SD) Observed” value (serum cortisol; Wk 4, 12.5 mg BID) was 10.895 (3.859) μg/dL and the “Cortisol, Mean (SD) Percent Change from Baseline” value (serum cortisol; Wk 4, 12.5 mg BID) was 10.26 (45.03) %. The “Cortisol, Mean (SD) Observed” value (serum cortisol; Wk 4, 12.5 mg QD) was 9.305 (4.164) μg/dL, the “Cortisol, Mean (SD) Percent Change from Baseline” value (serum cortisol; Wk 4, 12.5 mg QD) was 7.47 (37.82) % and the “Cortisol, Mean (SD) Observed” value (serum cortisol; Wk 4, 25 mg BID) was 12.311 (5.180) μg/dL. The “Cortisol, Mean (SD) Percent Change from Baseline” value (serum cortisol; Wk 4, 25 mg BID) was 19.20 (49.39) %, the “Cortisol, Mean (SD) Observed” value (serum cortisol; Wk 4, 50 mg QD) was 10.875 (3.368) μg/dL and the “Cortisol, Mean (SD) Percent Change from Baseline” value (serum cortisol; Wk 4, 50 mg QD) was 3.83 (32.48) %. The “Cortisol, Mean (SD) Observed” value (serum cortisol; Wk 4, 100 mg QD) was 11.842 (4.350) μg/dL, the “Cortisol, Mean (SD) Percent Change from Baseline” value (serum cortisol; Wk 4, 100 mg QD) was 3.91 (32.33) % and the “Cortisol, Mean (SD) Observed” value (serum cortisol; Wk 8, 12.5 mg BID) was 12.316 (7.649) μg/dL. The “Cortisol, Mean (SD) Percent Change from Baseline” value (serum cortisol; Wk 8, 12.5 mg BID) was 20.56 (73.01) %, the “Cortisol, Mean (SD) Observed” value (serum cortisol; Wk 8, 12.5 mg QD) was 12.511 (8.784) μg/dL and the “Cortisol, Mean (SD) Percent Change from Baseline” value (serum cortisol; Wk 8, 12.5 mg QD) was 41.84 (90.37) %. The “Cortisol, Mean (SD) Observed” value (serum cortisol; Wk 8, 25 mg BID) was 15.525 (8.258) μg/dL, the “Cortisol, Mean (SD) Percent Change from Baseline” value (serum cortisol; Wk 8, 25 mg BID) was 49.57 (77.17) % and the “Cortisol, Mean (SD) Observed” value (serum cortisol; Wk 8, 50 mg QD) was 15.650 (7.102) μg/dL. For the same compound, the “Cortisol, Mean (SD) Percent Change from Baseline” value (serum cortisol; Wk 8, 50 mg QD) was 51.35 (78.86) %, the “Cortisol, Mean (SD) Observed” value (serum cortisol; Wk 8, 100 mg QD) was 16.680 (9.083) μg/dL and the “Cortisol, Mean (SD) Percent Change from Baseline” value (serum cortisol; Wk 8, 100 mg QD) was 47.29 (92.65) %. The “Cortisol, Mean (SD) Observed” value (serum cortisol; Wk 12, 12.5 mg BID) was 9.978 (2.742) μg/dL, the “Cortisol, Mean (SD) Percent Change from Baseline” value (serum cortisol; Wk 12, 12.5 mg BID) was −1.22 (21.10) % and the “Cortisol, Mean (SD) Observed” value (serum cortisol; Wk 12, 12.5 mg QD) was 9.317 (3.294) μg/dL. The “Cortisol, Mean (SD) Percent Change from Baseline” value (serum cortisol; Wk 12, 12.5 mg QD) was 18.06 (48.59) %, the “Cortisol, Mean (SD) Observed” value (serum cortisol; Wk 12, 25 mg BID) was 12.559 (4.287) μg/dL and the “Cortisol, Mean (SD) Percent Change from Baseline” value (serum cortisol; Wk 12, 25 mg BID) was 22.65 (41.94) %. For the same compound, the “Cortisol, Mean (SD) Observed” value (serum cortisol; Wk 12, 50 mg QD) was 11.262 (3.590) μg/dL.
